Results on 1 compound are retold here after ChEMBL document CHEMBL1800057, “Discovery of dual inducible/neuronal nitric oxide synthase (iNOS/nNOS) inhibitor development candidate 4-((2-cyclobutyl-1H-imidazo[4,5-b]pyrazin-1-yl)methyl)-7,8-difluoroquinolin-2(1H)-one (KD7332) part 2: identification of a novel, potent, and selective series of benzimidazole-quinolinone …” (J Med Chem, 2010).

Some results are limits rather than exact numbers.

The assay addresses T1, Nitric oxide synthase 3 (Homo sapiens) (UniProt P29474).
T1 sequence (whole entry): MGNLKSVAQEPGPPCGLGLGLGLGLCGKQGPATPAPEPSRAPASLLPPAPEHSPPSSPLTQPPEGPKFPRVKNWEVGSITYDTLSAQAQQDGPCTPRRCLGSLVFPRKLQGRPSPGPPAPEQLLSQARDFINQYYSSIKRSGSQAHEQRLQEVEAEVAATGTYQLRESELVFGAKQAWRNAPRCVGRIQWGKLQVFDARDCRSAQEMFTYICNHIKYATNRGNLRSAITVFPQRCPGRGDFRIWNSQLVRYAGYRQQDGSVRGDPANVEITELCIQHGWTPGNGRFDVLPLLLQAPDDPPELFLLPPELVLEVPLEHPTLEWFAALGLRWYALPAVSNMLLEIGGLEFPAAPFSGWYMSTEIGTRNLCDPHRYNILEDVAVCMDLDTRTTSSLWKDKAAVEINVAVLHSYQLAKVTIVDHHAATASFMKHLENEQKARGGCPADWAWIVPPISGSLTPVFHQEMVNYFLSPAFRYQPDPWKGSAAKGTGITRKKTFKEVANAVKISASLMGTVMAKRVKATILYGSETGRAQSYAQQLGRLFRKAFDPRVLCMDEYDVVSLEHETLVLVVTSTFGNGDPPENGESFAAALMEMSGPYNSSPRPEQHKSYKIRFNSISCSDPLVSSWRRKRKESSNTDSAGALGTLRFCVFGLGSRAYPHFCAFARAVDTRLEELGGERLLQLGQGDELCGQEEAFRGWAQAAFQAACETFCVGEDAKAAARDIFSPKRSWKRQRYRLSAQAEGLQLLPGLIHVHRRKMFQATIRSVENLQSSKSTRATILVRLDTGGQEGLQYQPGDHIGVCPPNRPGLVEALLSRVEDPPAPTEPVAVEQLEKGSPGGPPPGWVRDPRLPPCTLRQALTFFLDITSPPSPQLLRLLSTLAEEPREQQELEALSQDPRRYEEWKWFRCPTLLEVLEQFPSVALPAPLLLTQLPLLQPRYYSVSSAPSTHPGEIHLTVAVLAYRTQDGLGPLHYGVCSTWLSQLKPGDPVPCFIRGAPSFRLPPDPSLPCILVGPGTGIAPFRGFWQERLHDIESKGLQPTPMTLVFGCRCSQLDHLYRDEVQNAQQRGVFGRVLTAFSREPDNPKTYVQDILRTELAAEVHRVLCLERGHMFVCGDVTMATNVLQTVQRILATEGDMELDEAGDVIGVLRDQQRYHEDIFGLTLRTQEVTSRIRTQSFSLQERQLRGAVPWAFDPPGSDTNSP
Description: Inhibition of human eNOS expressed in HEK293 cells assessed as inhibition A23187 induced nitric oxide production at 100 uM incubated for 24 hrs measured after 18 hrs of […] challenge using 2,3-diaminonaphthalene by fluorescence assay. Format: cell-based.

Consider `CC(C)Cc1nc2ccccc2n1Cc1cc(=O)[nH]c2c(F)c(F)ccc12`, for which the inhibition is < 50%.

The inhibition is how much of the control response was suppressed.
